According to a melting point compilation (Tetko et al.; mined from patent text by program, amines drawn as free bases though some values may be those of a salt):

Row | melting point [°C] | Structure (SMILES)
1 | 132 | CCCN(CC(=O)NC12CC3CC(CC(C3)C1)C2)C(=O)NCCCc1ccncc1
2 | 114 to 115 | COc1ccc(-c2ccc(-c3ccc(F)cc3)nc2-c2ccc(OCc3ccccc3)cc2)cc1
3 | 125 to 127 | CC(C)(C)OC(=O)NC1(CCN2C(=O)c3ccccc3C2=O)CC1
4 | 142 to 144 | CC(=O)Oc1ccc(-c2ccc(C(C)O)cc2)cc1 (stereo not drawn)
5 | 96 to 101 | COc1ccc(C=O)c(OCC#N)c1
6 | 219 to 221 | CC1(C)CC(Nc2nc(NC3CC(C)(C)NC(C)(C)C3)nc(NC3CC(C)(C)NC(C)(C)C3)n2)CC(C)(C)N1
7 | 164 | CCOC(=O)C(=O)Nc1cc(Br)c2ccccc2c1NC(=O)C(=O)OCC
8 | 155 to 157 | CCC1OCCn2c1nc(C(=O)NCc1ccc(F)cc1-n1cncn1)c(OCc1ccccc1)c2=O (stereo not drawn)
9 | 198 to 200 | CCOC(=O)c1nnc2ccc(-c3ccco3)cc2c1O
10 | 276 | Fc1ccc(-c2nc(-c3ccc[nH]3)[nH]c2-c2ccc(F)cc2)cc1
11 | 68 to 69 | C=CCOc1ccccc1-c1ccc(C#N)cc1
12 | 220 to 224 | Cc1cc2c(cc1C)CC(=O)NC=C2
13 | 155 to 158 | N#CC(C#N)CC(=O)c1ccc(Cl)s1
14 | 263 to 264 | Cc1nc2c3c(c(C(=O)N4CCCC4)cc2n1C)CCC1(Cc2ccccc2C1)N3
15 | 103 | C[Si](C)(C)O[Si]1(O[Si](C)(C)C)O[Si](O[Si](C)(C)C)(O[Si](C)(C)C)O[Si](O[Si](C)(C)C)(O[Si](C)(C)C)O1
16 | 185 | COc1ccc(C(=O)Nc2nc3ccc(N(C)C)cc3c(NCc3ccccc3)c2C#N)cc1
17 | 114 to 116 | CSc1sc(C(=O)N2CCCC2)c2c1-c1oncc1C(C)(C)C2
18 | 113 to 115 | Cn1ncc2c(c1=O)OCCNC2Cc1ccccc1 (stereo not drawn)
19 | 68 to 70 | NCc1ccc(CN2CCN(c3ccccc3)CC2)cc1
20 | 131 to 133 | Cc1ccc(C(=O)N2CCN(CC3(C)Cc4c(C)c(N)c(C)c(C)c4O3)CC2)cc1 (stereo not drawn)
21 | 161 to 164 | CC(O)N(C)C(=O)c1cc(C(C)(C)C)c(O)c(C(C)(C)C)c1 (stereo not drawn)
22 | 240 to 242 | Cc1[nH]c2ccc([N+](=O)[O-])cc2c1Cn1ccnc1
23 | 194 to 195 | Cc1cccc(C(=O)NC(C)C)c1N(C(=O)c1cc(C(F)(F)F)[nH]n1)c1ncccc1Cl
24 | 280 | COc1ccc(-c2[nH]nc3c2C(=O)c2c(NC(=O)NNC(=O)c4ccccc4O)cccc2-3)cc1

Row | melting point [°C] | Structure (SMILES)
25 | 79 to 81 | CC(C)(C)C(O)C(CCCCOc1ccccc1)n1cncn1 (stereo not drawn)
26 | 118 to 120 | O=C(CCCCCCC(=O)N1CCN(CCc2ccc3ccccc3c2)CC1)NO
27 | 148 to 151 | Cc1cc(C2=NNC(C)(C#N)Cc3cc4c(cc32)OCO4)ccc1[N+](=O)[O-] (stereo not drawn)
28 | 149 to 155 | O=C(O)c1cc(Cl)ccc1COc1ccccc1
29 | 274 to 276 | Cc1[nH]c(C(=O)N2CCC(C(=O)NCC3CCCCC3)CC2)c(C)c1-c1nc2ccc(C(=O)c3ccccc3)cc2[nH]1
30 | 82 to 84 | Cn1cc(C(O)(c2ccc3c(cnn3C(=O)OC3CCC3)c2)C(F)(F)F)c2ccccc21 (stereo not drawn)
31 | 175 to 176 | COc1ccc(C(=O)NCc2ccc(C)n2CCC#N)cc1OC
32 | 132 to 133 | CC(=O)OC1CSC(Oc2cc(-c3ccc(C#N)cc3)cnc2F)C(OC(C)=O)C1OC(C)=O (stereo not drawn)
33 | 113 to 115 | COc1cc(N)c(Cl)cc1C(=O)NCC1CCN(CCCCCCOc2ccccc2)CC1
34 | 257 to 259 | O=C(O)Cc1c(Cl)cnc2c(NC(=O)c3c(Cl)cccc3Cl)cccc12
35 | 144 to 146 | CN1CCCCC1CNC(=O)Nc1cc(N2CC(c3ccccc3)CC2=O)ccn1 (stereo not drawn)
36 | 188 to 200 | O=C(N/C(=C\c1c[nH]c2ccccc12)C(=O)NCCc1ccccn1)OC1C2CC3CC(C2)CC1C3 (stereo not drawn)
37 | 67.4 to 68 | COCCCOc1ccc(CCCOC(=O)NS(=O)(=O)NCCOC(C)C)c(Oc2ncc(C(F)(F)F)cc2Cl)c1
38 | 156 to 158 | CCCS(=O)(=O)N(c1cc(Cl)ccc1C(=O)OC)S(=O)(=O)CCC
39 | 59 to 61 | COc1cccc(CN(C)CC(CCN2CCC(NC(C)=O)(c3ccccc3)CC2)c2ccc(Cl)c(Cl)c2)c1 (stereo not drawn)
40 | 93 to 94 | CCOC(=O)C1=CC(=O)CC(c2ccc(Cl)cc2)N1 (stereo not drawn)
41 | 60 | CCCCCCCCCCCCNC(=S)C1(c2ccccn2)CCCS1 (stereo not drawn)
42 | 155 to 157 | CC(C)(O)Cc1nc2cnc3ccccc3c2s1
43 | 127 to 129 | CCCCCC(=O)N1c2ccccc2NC(=O)c2cscc21
44 | 133 to 134 | CSc1ccc(F)cc1C(=O)Cn1cccc1
45 | 68 to 69 | C=CCc1c(OCOC)cc(OCOC)c(C(=O)C=Cc2ccc(OCOC)cc2)c1O
46 | 150 | CC(=O)OC1CSC(Oc2cnccc2C)C(OC(C)=O)C1OC(C)=O (stereo not drawn)
47 | 224 to 225 | O=C(Nc1ccc(OC(F)(F)F)cc1)N[C@H]1CC[C@H](O)CC1
48 | 144 to 145 | c1ccc(CN2CCC3(CC2)SC(c2ccccc2)c2ccccc23)cc1 (stereo not drawn)

Row | melting point [°C] | Structure (SMILES)
49 | 132 to 135 | NCCc1ccc(OCCC(c2ccc(Cl)cc2)(c2ccc(Cl)cc2)c2ccc(Cl)cc2)cc1
50 | 135 to 136 | O=C(Nc1nc(C(O)C(=O)O)cs1)OCC(Cl)(Cl)Cl (stereo not drawn)
51 | 259 to 260 | COc1cc(C=CC(=O)Nc2c(-c3ccccc3Cl)c3cc(C)c(C)cc3n(C)c2=O)cc(OC)c1OC(C)=O
52 | 115 to 118 | CC[C@@H](C)[C@H]1c2ccccc2-c2ccccc2N1S(=O)(=O)c1ccc(O)cc1 (relative stereo)
53 | 206 to 207 | Cc1cc(NC(=O)NNc2cccc(C#N)c2)ccc1N1CCCCC1=O
54 | 187 to 188 | Oc1ccc(F)cc1-c1cc(-c2ccc(-c3ccccc3)cc2)cc(-c2ccc3ccccc3c2)n1
55 | 207 to 208 | COc1cc(CN(C)c2ncc(C(=O)NO)cn2)cc(C(=O)Nc2ccc(Cl)c(-c3nc4cc(N(C)C)ccc4[nH]3)c2)c1
56 | 157 to 158 | Cc1cc(C)cc(Oc2c(C(C)C)c(=O)[nH]c(=O)n2CC2CCCC2)c1
57 | 157 to 160 | CN1CCN(c2cccc3ccc(Nc4nc(Cc5ccccc5)cs4)cc23)CC1
58 | 141 to 143 | CCC(CC)Nc1cc(C(=O)OC)ccc1N1C(=O)CCC1(CO)CCO (stereo not drawn)
59 | 75 to 76 | CCCCCCCCCCCCOc1cc(N)c(OCCCCCCCCCCCC)cc1N
60 | 116 | CC(C)c1ccccc1S(=O)(=O)c1ccc(OCCCNC(C)(C)C)cc1
61 | 97 to 113 | Cc1cc(N(C)C)ccc1C1(N(c2ccc(N(C)C)cc2)c2ccc(N(C)C)cc2)OC(=O)c2ccccc21 (stereo not drawn)
62 | 66 | CCOC(=O)c1cnc(N2CCN(Cc3ccccc3)CC2)nc1C(=O)OCC
63 | 125 to 126 | c1ccc(Oc2ccc(-c3nc(-c4ccccc4)c(-c4ccccc4)o3)cc2)cc1
64 | 250 to 251 | Cc1cccc(-c2nc3cccnn3c2-c2ccnc(N)n2)c1
65 | 145 | Cn1cc(-c2ccccc2)c(=O)c(-c2ccccc2Cl)c1
66 | 245 to 247 | O=CNc1[nH]c(-c2ccc(F)cc2)nc1-c1ccccc1
67 | 194 to 196 | CC(C)C(=O)NC1c2cc3nonc3cc2OC(C)(C)C1O (stereo not drawn)
68 | 97.5 to 98 | CCCCC(=O)N(c1ccn(C)n1)C1CCCCC1
69 | 219 to 220 | N#Cc1ccc(Oc2ccc(C3CCCN4CCS(=O)(=O)N=C34)cc2)cc1Cl (stereo not drawn)
70 | 268 | Cc1cc2ccccc2n2c(S)nnc12
71 | 92 to 94 | CCCNc1cn(-c2cccnc2)nc1Cl
72 | 78 to 80 | CCOC(=O)CC(=O)c1cc2cc(F)c(F)c(F)c2nc1Cl

Row | melting point [°C] | Structure (SMILES)
73 | 180 to 184 | COC(=O)N=CNNc1cc(SCC(C)C)ccc1NC(C)=O
74 | 102 | O=C1CCC(N2CCOc3cc(Br)ccc32)CC1
75 | 87 to 89 | CN(CC(=O)c1ccc(N2CCOCC2)cc1)C(=O)OC(C)(C)C
76 | 65 to 69 | CC(C)(C)c1cc(Br)c(O)c(Br)c1
77 | 191 to 192 | Cc1c(NC(=O)c2ccc(OC[C@@H]3CCCO3)cc2)ccc2[nH]c(CNC3CCCC3)cc12
78 | 120 to 128 | COc1ccc(NC(=O)N(Cc2ccccc2)Cc2cccnc2)c(NC(=O)c2cc(C(C)(C)C)c(O)c(C(C)(C)C)c2)c1
79 | 114 to 116 | N#Cc1c(OCC(F)(F)F)nc(CCO)nc1N1CCc2ccccc2CC1
80 | 117 to 118 | c1ccc(-c2ccc(N(c3ccccc3)c3ccccc3)cc2)cc1
81 | 165 to 167 | Cc1c(NC(=O)C(CSC(=O)OCC(C)C)Cc2ccccc2)cccc1C(=O)O (stereo not drawn)
82 | 219 | ClCCCOc1cccc2c(OCCCCl)cccc12
83 | 232 to 234 | CCc1c(O)n[nH]c1C
84 | 166 | CC(=O)c1nn(-c2c(Cl)cc(C(F)(F)F)cc2Cl)c(N)c1S(C)=O (stereo not drawn)
85 | 86 to 90 | N#CCCNC(=O)Sc1ccccc1
86 | 35 to 39 | CC(C)c1ccnc(C(C)C)c1N
87 | 170 | C/C(=C\c1ccc(C(F)(F)F)cc1)C(=O)O
88 | 202 | NS(=O)(=O)c1ccc(/C(=C2\CCOC2=O)c2ccc(F)cc2)cc1
89 | 84 to 86 | CCN(CC)C(=O)n1cc(Cl)c(S(=O)(=O)c2c(C)cc(C)cc2C)n1
90 | 45 | CCCC1(C)CC(=O)c2ccc(OCc3ccccc3)c(C)c2O1 (stereo not drawn)
91 | 114 to 115 | COc1cc2oc(=O)c(CCOS(C)(=O)=O)c(C)c2c(OC)c1OC
92 | 178 to 180 | Cc1ccc(C)n1-c1ccc(OC(C)(C)C(=O)O)cc1
93 | 178 to 180 | Cn1nc(-c2nc(OCC(N)=O)c(Cl)cc2F)c(Cl)c1OC(F)F
94 | 66 to 67 | O=C(CC(=O)C(F)(F)F)c1ccc(Cl)cc1

Row | Structure (SMILES) | melting point [°C]
95 | CC1(C)NC(=O)CN1C(=O)CNC(=O)CN1CC(O)CC1=O (stereo not drawn) | 227 to 229
96 | CN1C(=O)[C@H](NC(=O)CCCc2ccccc2)N=C(c2ccccc2)c2ccccc21 | 65 to 74
97 | CC(Br)CN(CC(C)Br)c1c(C(=O)NCCOP(=O)(O)O)cc([N+](=O)[O-])cc1[N+](=O)[O-] (stereo not drawn) | 157 to 161
98 | CNC(=O)ON=C1OCCSC1(C)C | 67 to 68
